The source of these data is patent US20240246946A1, “MODULATORS OF TREX1” (Constellation Pharmaceuticals, Inc., priority 2021, published 2024).

The term residence time denotes how long the partners stay bound on average. The koff is a measure of how fast the partners let go of each other. Low values mean slow dissociation, high ones fast dissociation. As a reminder, the IC50 is the concentration that inhibits the measured activity by half.

Assay [1] deals with T1, full length human TREX1 (Homo sapiens, UniProt Q9NSU2).
T1 construct: N-terminally His-Tev tagged full length human TREX1; made in house; host or cells: E. coli
T1 sequence (Q9NSU2 1-314): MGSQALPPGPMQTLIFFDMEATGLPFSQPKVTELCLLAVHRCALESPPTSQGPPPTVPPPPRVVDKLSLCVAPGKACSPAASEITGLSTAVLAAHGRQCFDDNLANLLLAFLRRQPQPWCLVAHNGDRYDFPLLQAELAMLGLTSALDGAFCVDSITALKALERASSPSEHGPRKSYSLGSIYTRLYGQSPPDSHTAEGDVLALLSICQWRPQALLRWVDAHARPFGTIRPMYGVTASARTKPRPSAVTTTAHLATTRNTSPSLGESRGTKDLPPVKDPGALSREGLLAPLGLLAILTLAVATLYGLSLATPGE
Description: TREX1 Kinetics Assays (TR-FRET association and dissociation, global fit with Kintek Explorer). The class given is binding. The note with it: for residence time: hTREX1, TR-FRET kinetics; for koff: hTREX1, TR-FRET, 25° C., global fit. How it is done: Compound binding kinetics were assessed using a pair of TR-FRET assays which measure the proportion of protein bound to a biotinylated TREX1 inhibitor (“probe”).
N-terminally His-Tev tagged full length human TREX1 (expressed in E. coli and purified in house), complexed with Eu-W1024-anti-6×His (“Eu”; PerkinElmer) in reaction buffer (50 mM Tris, 150 mM NaCl, 2 mM DTT, 0.1 mg/mL BSA, 0.01% (w/v) Tween-20, 5 mM MgCl2, pH 7.4) was combined with an equal volume of test compound in reaction buffer and incubated at 25° C. Concentrations at this stage were 1 nM TREX1/Eu complex, and four concentrations of compound (diluted from 10 mM stocks in 100% DMSO). At defined time points, 18 μL of this mixture was withdrawn and combined with 2 μL probe to a final concentration of 1 μM probe. After incubating for 30 seconds, 18 μL was withdrawn and combined with 2 μL streptavidin-allophycocyanin (“SA-APC”; PerkinElmer) to a final concentration of 1.5 μM SA-APC. Fifteen μL of this mixture was then immediately transferred to a 384-well Black ProxiPlate Plus (PerkinElmer) and read in an EnVision plate reader (PerkinElmer) measuring fluorescence at 615 nm and 665 nm following excitation w/337 nm laser light. Final concentrations were 0.8 nM TREX1/Eu complex, 0.9 μM probe, and 1.5 μM SA-APC.
N-terminally His-Tev tagged full length human TREX1 (expressed in E. coli and purified in house), complexed with Eu-W1024-anti-6×His (“Eu”; PerkinElmer) in reaction buffer (50 mM Tris, 150 mM NaCl, 2 mM DTT, 0.1 mg/mL BSA, 0.01% (w/v) Tween-20, 5 mM MgCl2, pH 7.4) was combined with an equal volume of test compound in reaction buffer. Concentrations at this stage were 100 nM TREX1/Eu complex and 100 nM test compound (diluted from 10 mM stocks in 100% DMSO). Following an equilibration period of at least an hour at 25° C., this mixture was diluted 100-fold into reaction buffer containing 1 μM probe, and incubated at 25° C. At defined time points, 36 μL of the reaction mixture was withdrawn and combined with 4 μL streptavidin-allophycocyanin (“SA-APC”; PerkinElmer) to a final concentration of 1.5 μM SA-APC. Fifteen μL of this mixture was then immediately transferred to duplicate wells of a 384-well Black ProxiPlate Plus (PerkinElmer) and read in an EnVision plate reader (PerkinElmer) measuring fluorescence at 615 nm and 665 nm following excitation w/337 nm laser light.
The TR-FRET signal, a ratio of 665 nm/615 nm emitted light, was converted to fraction enzyme bound to test compound by normalizing to low signal (no enzyme or test compound) and high signal (no test compound) controls. Data from both association and dissociation experiments were fitted globally using Kintek Explorer software, which computes the rate constants directly.
(In general: In TR-FRET formats the signal depends on donor and acceptor labels being close together.)

The target in assay [2] is T1, full length human TREX1. Description: hTREX1 Biochemical Assay (fluorescence, dsDNA substrate degradation). The note with it: biochemical, read-out: hTREX1 IC50. In short, it runs like this: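 Cleavage of 60 nM TEX615/quencher-labelled dsDNA in pH 7.4 Tris buffer with 5 mM MgCl2, 1.0% DMSO, run 18 hours at 25° C, EDTA-quenched; fluorescence read-out.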
Assay [3] concerns the target T2, full length mouse TREX1 (Mus musculus, UniProt Q91XB0).
T2 construct: N-terminally His-Tev tagged full length mouse TREX1; made in house; host or cells: E. coli
T2 sequence (Q91XB0 1-314): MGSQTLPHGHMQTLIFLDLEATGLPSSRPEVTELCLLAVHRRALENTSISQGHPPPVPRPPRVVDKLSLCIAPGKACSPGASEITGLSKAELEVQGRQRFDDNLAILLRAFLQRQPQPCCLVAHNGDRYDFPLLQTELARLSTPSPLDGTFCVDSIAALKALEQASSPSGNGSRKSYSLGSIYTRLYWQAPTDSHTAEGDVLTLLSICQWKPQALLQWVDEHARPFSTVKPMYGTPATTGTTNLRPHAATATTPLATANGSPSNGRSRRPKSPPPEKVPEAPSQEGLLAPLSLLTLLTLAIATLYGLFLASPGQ
Briefly: mTREX1 Biochemical Assay (fluorescence, dsDNA substrate degradation). The note with it: biochemical, read-out: mTREX1 IC50. In short, it runs like this:
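Reaction run 18 h at 25° C. with 60 nM TEX615/quencher-labelled dsDNA and 6 pM mouse TREX1 in Tris buffer (pH 7.4, 5 mM MgCl2, 1.0% DMSO), enzyme having sat 4 h with compound across 10 concentrations. EDTA quench; substrate degradation measured as fluorescence increase.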

Assay [4] deals with T3, human TREX2 (residues M44-A279) (Homo sapiens, UniProt Q9BQ50).
T3 construct: human TREX2 (residues M44-A279, expressed in E. coli); made in house; host or cells: E. coli
T3 sequence (Q9BQ50 44-279 isoform Q9BQ50-1): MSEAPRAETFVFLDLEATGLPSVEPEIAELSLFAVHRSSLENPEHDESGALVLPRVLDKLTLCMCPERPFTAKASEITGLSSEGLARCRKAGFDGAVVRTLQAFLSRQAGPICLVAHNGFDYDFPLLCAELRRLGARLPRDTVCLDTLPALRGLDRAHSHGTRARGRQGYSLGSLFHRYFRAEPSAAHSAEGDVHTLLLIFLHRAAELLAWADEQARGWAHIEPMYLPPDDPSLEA
Description: hTREX2 Biochemical Assay (fluorescence, dsDNA substrate degradation). The note with it: biochemical selectivity for hTREX1 vs hTREX2. In short, it runs like this:
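N-His-Tev E. coli enzyme (50 pM) pre-incubated with compound 4 h at 25 °C, then 60 nM TEX615/quencher dsDNA added; 18 h at 25 °C, pH 7.4 Tris buffer with 5 mM MgCl2, 1.0% DMSO. EDTA-quenched; fluorescence 570 ex/615 em from liberated fluorophore, 10-point dose-response.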

Assay [5] concerns the target T4, hTREX1 (Homo sapiens, UniProt Q9NSU2).
T4 construct: host or cells: HCT116 dual cells
T4 sequence (Q9NSU2 1-314): T1 sequence (Q9NSU2 1-314)
Briefly: hTREX1 HCT116 Cell Assay (HCT116 dual cells, Lucia luciferase reporter of Type I interferon induction). The class given is cell-based. The note with it: TREX1i 4 h before pBR322/BstNI transfection, read after 48 h. Put shortly: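 HCT116 dual cells carrying an ISRE-type STAT1/STAT2-driven secreted Lucia luciferase reporter were pretreated with TREX1 inhibitor for 4 h (≤0.1% DMSO), then transfected with pBR322/BstNI DNA (100 ng/well, Lipofectamine LTX). Luciferase in medium read after 48 h at 37 °C.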
In general terms: A reporter such as luciferase makes a cellular process visible.

Take `Cc1cnc(C(c2ccccc2C#N)C(C)c2nc(C(=O)Nc3cnoc3)c(O)c(=O)n2C)cn1` (single isomer, unassigned) [Example 46 D1E2]: in assay [1], the residence time is 346 min and the koff is 4.82e-05 s⁻¹.

With `Cc1ncc(C(c2ccccc2C#N)C(C)c2nc(C(=O)Nc3cnoc3)c(O)c(=O)n2C)cn1` (single isomer, unassigned) [Example 67 D1E2], the IC50 in assay [2] is below 0.001 µM. Moreover, in assay [1], the residence time was determined as 408 min and the koff is 4.08e-05 s⁻¹.

On to `Cc1cnn(C(c2cc(F)ccc2Cl)C(C)c2nc(C(=O)Nc3cnoc3)c(O)c(=O)n2C)c1` (single isomer, unassigned) [Example 144 D1E2], for which the IC50 was 0.001 to 0.01 µM in assay [2], above 0.01 µM in assay [3] and above 0.1 µM in assay [5]. Also, the “hTREX1 vs hTREX2 selectivity” value in assay [4] was “A (A = <25 fold selective for hTREX1)”.

On to `Cc1ccnn1C(c1cc(F)ccc1Cl)C(C)c1nc(C(=O)Nc2cnoc2)c(O)c(=O)n1C` (single isomer, unassigned) [Example 145 D1E1], for which the IC50 in assay [2] was 0.001 to 0.01 µM; in assay [3] it was above 0.01 µM; in assay [5], 0.01 to 0.1 µM. Further, in assay [4], the “hTREX1 vs hTREX2 selectivity” value is given as “B (B = 25 to 50-fold selective for hTREX1)”.

With `Cc1ccn(C(c2cc(F)ccc2Cl)C(C)c2nc(C(=O)Nc3cnoc3)c(O)c(=O)n2C)n1` (single isomer, unassigned) [Example 146 D1E1], the IC50 is 0.001 to 0.01 µM in assay [2], above 0.01 µM in assay [3] and above 0.1 µM in assay [5]. Further, the “hTREX1 vs hTREX2 selectivity” value in assay [4] is recorded as “C (C = >50 fold selective for hTREX1)”.

Take `CC(c1nc(C(=O)Nc2cnoc2)c(O)c(=O)n1C)C(c1ccccc1Cl)n1nccc1C(N)=O` (single isomer, unassigned) [Example 147 D1E1]: the IC50 was below 0.001 µM in assay [2], above 0.01 µM in assay [3] and 0.01 to 0.1 µM in assay [5]. The “hTREX1 vs hTREX2 selectivity” value in assay [4] is given as “C (C = >50 fold selective for hTREX1)”.

`CC(c1nc(C(=O)Nc2cnoc2)c(O)c(=O)n1C)C(c1cnn(C(F)(F)F)c1)c1ccccc1C#N` (single isomer, unassigned) [Example 151 D1E1]: the results for the IC50 in assay [2], in assay [3] and in assay [5] were below 0.001 µM, below 0.001 µM and 0.01 to 0.1 µM, respectively. Also, the “hTREX1 vs hTREX2 selectivity” value in assay [4] is “B (B = 25 to 50-fold selective for hTREX1)”.

In the case of `CC(c1nc(C(=O)Nc2cnoc2)c(O)c(=O)n1C)C(c1cnn(C(F)(F)F)c1)c1ccccc1C#N` (single isomer, unassigned) [Example 151 D2E1], the concentration for half-maximal inhibition (IC50) in assay [2] was 0.001 to 0.01 µM; in assay [3] it was above 0.01 µM; in assay [5], above 0.1 µM. Further, in assay [4], the “hTREX1 vs hTREX2 selectivity” value is given as “B (B = 25 to 50-fold selective for hTREX1)”.

As for `CC(c1nc(C(=O)Nc2cnoc2)c(O)c(=O)n1C)C(c1ccccc1Cl)c1nncn1C` (single isomer, unassigned) [Example 152 D1E1], the IC50 in assay [2] is above 0.01 µM; in assay [3], above 0.01 µM; in assay [5], above 0.1 µM. Also, in assay [4], the “hTREX1 vs hTREX2 selectivity” value was “B (B = 25 to 50-fold selective for hTREX1)”.

For `Cc1nn(C)c(C)c1C(c1cc(F)ccc1Cl)C(C)c1nc(C(=O)Nc2cnoc2)c(O)c(=O)n1C` (single isomer, unassigned) [Example 154 D1E1], the IC50 in assay [2] is below 0.001 µM; in assay [3] it was 0.001 to 0.01 µM; in assay [5], above 0.1 µM. For the same compound, in assay [4], the “hTREX1 vs hTREX2 selectivity” value is given as “B (B = 25 to 50-fold selective for hTREX1)”.

In the case of `CC(c1nc(C(=O)Nc2cnoc2)c(O)c(=O)n1C)C(c1ccccc1)c1cccnc1C#N` (single isomer, unassigned) [Example 155 D1E2], the IC50 in assay [2] was 0.001 to 0.01 µM; in assay [3], 0.001 to 0.01 µM; in assay [5] it was above 0.1 µM. Also, the “hTREX1 vs hTREX2 selectivity” value in assay [4] is recorded as “C (C = >50 fold selective for hTREX1)”.

Regarding `CC(c1nc(C(=O)Nc2cnoc2)c(O)c(=O)n1C)C(c1ccccc1)c1cccnc1C#N` (single isomer, unassigned) [Example 155 D2E1], the values for the half-maximal inhibitory concentration (IC50) in assay [2], in assay [3] and in assay [5] were below 0.001 µM, above 0.01 µM and 0.01 to 0.1 µM, respectively. Besides, the “hTREX1 vs hTREX2 selectivity” value in assay [4] was “C (C = >50 fold selective for hTREX1)”.

`Cc1nnc(C(c2ccccc2Cl)C(C)c2nc(C(=O)Nc3cnoc3)c(O)c(=O)n2C)o1` (single isomer, unassigned) [Example 156 D1E1]: the results for the IC50 in assay [2], in assay [3] and in assay [5] were above 0.01 µM, above 0.01 µM and above 0.1 µM, respectively. In addition, the “hTREX1 vs hTREX2 selectivity” value in assay [4] is given as “A (A = <25 fold selective for hTREX1)”.
